Data set [1] has as its target T1, Cytochrome P450 3A4 (Homo sapiens, UniProt P08684). Kind of data set: Drug metabolism assessed as recombinant CYP3A4 (unknown origin)-mediated compound formation treated with AMG 853 at 10 uM after 30 mins by LC-MS/MS analysis. The note with it: recombinant enzyme, 0.5 h. The data set is classed as ADME.
For data set [2], the target named is T2, Cytochrome P450 3A7 (Homo sapiens, UniProt P24462). Kind of data set: Drug metabolism assessed as recombinant CYP3A7 (unknown origin)-mediated compound formation treated with AMG 853 at 10 uM after 30 mins by LC-MS/MS analysis. The conditions noted are these: recombinant enzyme, 0.5 h. The class given is ADME.
The target of data set [3] is T3, Cytochrome P450 3A5 (Homo sapiens, UniProt P20815). Kind of data set: Drug metabolism assessed as recombinant CYP3A5 (unknown origin)-mediated compound formation measured per nmol protein treated with AMG 853 after 15 mins by LC-MS/MS analysis. The class given is ADME. The conditions noted are these: recombinant enzyme, 0.25 h.
Data set [4] deals with T4, Cytochrome P450 2C8 (Homo sapiens, UniProt P10632).
T4 sequence (P10632 whole entry): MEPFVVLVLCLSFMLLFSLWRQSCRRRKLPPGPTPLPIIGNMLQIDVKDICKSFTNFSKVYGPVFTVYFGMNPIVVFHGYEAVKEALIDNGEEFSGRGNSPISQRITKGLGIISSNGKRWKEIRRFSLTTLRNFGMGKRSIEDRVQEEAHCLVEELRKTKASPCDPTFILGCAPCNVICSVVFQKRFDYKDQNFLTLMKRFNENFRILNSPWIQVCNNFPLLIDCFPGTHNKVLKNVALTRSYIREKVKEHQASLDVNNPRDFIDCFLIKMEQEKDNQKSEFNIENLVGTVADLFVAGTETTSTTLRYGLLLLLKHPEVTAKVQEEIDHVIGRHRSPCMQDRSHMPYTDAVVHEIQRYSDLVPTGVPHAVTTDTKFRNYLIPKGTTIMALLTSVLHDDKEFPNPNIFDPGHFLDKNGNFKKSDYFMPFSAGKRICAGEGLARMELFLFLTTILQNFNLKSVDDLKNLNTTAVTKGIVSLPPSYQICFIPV
Kind of data set: Drug metabolism assessed as recombinant CYP2C8 (unknown origin)-mediated compound formation treated with AMG 853 at 10 uM after 30 mins by LC-MS/MS analysis. The data set is classed as ADME. The conditions noted are these: recombinant enzyme, 0.5 h.

Data set [5] deals with T4, Cytochrome P450 2C8. Kind of data set: Drug metabolism assessed as recombinant CYP2C8 (unknown origin)-mediated compound formation measured per nmol protein treated with AMG 853 after 15 mins by LC-MS/MS analysis. The class given is ADME. The note with it: recombinant enzyme, 0.25 h.
The target of the next data set is Cytochrome P450 2C19 (Homo sapiens, UniProt P33261). Kind of data set: Drug metabolism assessed as recombinant CYP2C19 (unknown origin)-mediated compound formation treated with AMG 853 at 10 uM after 30 mins by LC-MS/MS analysis. The note with it: recombinant enzyme, 0.5 h. The class given is ADME.
Data set [6] is described as follows: Drug metabolism in human liver microsomes assessed as […]-mediated compound formation treated with AMG 853 after 15 mins by LC-MS/MS analysis. The class given is ADME. The conditions noted are these: 0.25 h. (Microsomes from liver hold many membrane-bound enzymes, among them those of drug oxidation.)
The target in data set [7] is T2, Cytochrome P450 3A7. Kind of data set: Drug metabolism assessed as recombinant CYP3A7 (unknown origin)-mediated compound formation measured per nmol protein treated with AMG 853 after 15 mins by LC-MS/MS analysis. The data set is classed as ADME. The conditions noted are these: recombinant enzyme, 0.25 h.
For data set [8], the target named is T1, Cytochrome P450 3A4. Kind of data set: Drug metabolism assessed as recombinant CYP3A4 (unknown origin)-mediated compound formation measured per nmol protein treated with AMG 853 after 15 mins by LC-MS/MS analysis. The conditions noted are these: recombinant enzyme, 0.25 h. The class given is ADME.
Data set [9] concerns the target T5, Cytochrome P450 2J2 (Homo sapiens, UniProt P51589).
T5 sequence (P51589 whole entry): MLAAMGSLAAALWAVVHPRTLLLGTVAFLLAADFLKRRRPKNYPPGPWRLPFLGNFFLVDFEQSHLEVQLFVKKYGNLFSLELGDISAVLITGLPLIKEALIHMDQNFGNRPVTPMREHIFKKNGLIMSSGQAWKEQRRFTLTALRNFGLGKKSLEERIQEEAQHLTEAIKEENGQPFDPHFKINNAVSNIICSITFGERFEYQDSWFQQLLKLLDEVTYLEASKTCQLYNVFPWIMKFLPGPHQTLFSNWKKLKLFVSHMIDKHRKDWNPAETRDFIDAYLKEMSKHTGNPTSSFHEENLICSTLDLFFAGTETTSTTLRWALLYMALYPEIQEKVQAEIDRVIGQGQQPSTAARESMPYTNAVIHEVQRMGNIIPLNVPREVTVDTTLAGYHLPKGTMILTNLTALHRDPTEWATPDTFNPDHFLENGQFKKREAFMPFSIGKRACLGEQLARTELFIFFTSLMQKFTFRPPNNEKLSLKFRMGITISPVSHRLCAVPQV
Kind of data set: Drug metabolism assessed as recombinant CYP2J2 (unknown origin)-mediated compound formation treated with AMG 853 at 10 uM after 30 mins by LC-MS/MS analysis. The data set is classed as ADME. The conditions noted are these: recombinant enzyme, 0.5 h.

Data set [10] deals with T3, Cytochrome P450 3A5. Kind of data set: Drug metabolism assessed as recombinant CYP3A5 (unknown origin)-mediated compound formation treated with AMG 853 at 10 uM after 30 mins by LC-MS/MS analysis. The data set is classed as ADME. The conditions noted are these: recombinant enzyme, 0.5 h.
The target in data set [11] is T5, Cytochrome P450 2J2. Kind of data set: Drug metabolism assessed as recombinant CYP2J2 (unknown origin)-mediated compound formation measured per nmol protein treated with AMG 853 after 15 mins by LC-MS/MS analysis. The conditions noted are these: recombinant enzyme, 0.25 h. The data set is classed as ADME.
Data set [12] can be described thus: Drug metabolism in human liver microsomes assessed as CYP3A5*1/*1-mediated compound formation treated with AMG 853 after 15 mins by LC-MS/MS analysis. The class given is ADME. The conditions noted are these: 0.25 h.
A further data set deals with CYP1A2 (Homo sapiens, UniProt P05177). Kind of data set: Induction of CYP1A2 in human hepatocytes using phenacetin as substrate at 0.3 to 30 uM treated every 24 hrs for 2 days measured on day 5 by LC-MS/MS analysis relative to control. The data set is classed as ADME, cell-based, Hepatocyte. The note with it: probe phenacetin, read-out: FC.
Data set [13] addresses T5, Cytochrome P450 2J2. Kind of data set: Inhibition of recombinant CYP2J2 (unknown origin) treated with AMG 853. The class given is ADME.
In data set [14] the target is T4, Cytochrome P450 2C8. Kind of data set: Inhibition of recombinant CYP2C8 (unknown origin) treated with AMG 853. The data set is classed as ADME.
For the next data set, the target named is CYP2B6 (Homo sapiens, UniProt P20813). Kind of data set: Induction of CYP2B6 in human hepatocytes using bupropion as substrate at 0.3 to 30 uM treated every 24 hrs for 2 days measured on day 5 by LC-MS/MS analysis relative to control. The data set is classed as ADME, cell-based, Hepatocyte. The note with it: probe bupropion, read-out: FC.
Chain of CYP2B6 (P20813 whole entry): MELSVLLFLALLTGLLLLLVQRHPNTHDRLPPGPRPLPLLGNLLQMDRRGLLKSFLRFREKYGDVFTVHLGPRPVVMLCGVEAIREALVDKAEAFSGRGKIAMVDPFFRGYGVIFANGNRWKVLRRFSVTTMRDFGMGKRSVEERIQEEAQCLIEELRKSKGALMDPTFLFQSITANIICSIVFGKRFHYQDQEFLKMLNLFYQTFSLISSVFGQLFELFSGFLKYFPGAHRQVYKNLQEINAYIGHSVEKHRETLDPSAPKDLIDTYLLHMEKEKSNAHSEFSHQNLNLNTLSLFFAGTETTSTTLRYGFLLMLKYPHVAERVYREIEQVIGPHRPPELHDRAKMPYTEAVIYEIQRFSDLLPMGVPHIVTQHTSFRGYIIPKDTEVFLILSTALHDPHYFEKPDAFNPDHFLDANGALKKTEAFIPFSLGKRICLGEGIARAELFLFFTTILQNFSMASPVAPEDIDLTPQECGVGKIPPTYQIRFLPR

T1 sequence (P08684 whole entry): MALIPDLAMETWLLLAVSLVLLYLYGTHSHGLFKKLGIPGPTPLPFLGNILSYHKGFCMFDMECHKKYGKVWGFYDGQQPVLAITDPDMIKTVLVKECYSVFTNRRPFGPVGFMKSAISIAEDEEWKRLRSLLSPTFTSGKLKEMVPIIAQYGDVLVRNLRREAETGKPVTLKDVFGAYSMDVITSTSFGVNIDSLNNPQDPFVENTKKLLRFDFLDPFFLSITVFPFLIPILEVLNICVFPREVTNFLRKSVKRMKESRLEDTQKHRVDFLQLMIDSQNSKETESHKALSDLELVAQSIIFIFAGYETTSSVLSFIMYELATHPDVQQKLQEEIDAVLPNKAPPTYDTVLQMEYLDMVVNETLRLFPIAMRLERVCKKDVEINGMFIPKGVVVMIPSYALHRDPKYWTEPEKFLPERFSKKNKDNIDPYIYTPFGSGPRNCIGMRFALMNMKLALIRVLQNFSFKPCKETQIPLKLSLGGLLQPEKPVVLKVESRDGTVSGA
T3 sequence (P20815 whole entry): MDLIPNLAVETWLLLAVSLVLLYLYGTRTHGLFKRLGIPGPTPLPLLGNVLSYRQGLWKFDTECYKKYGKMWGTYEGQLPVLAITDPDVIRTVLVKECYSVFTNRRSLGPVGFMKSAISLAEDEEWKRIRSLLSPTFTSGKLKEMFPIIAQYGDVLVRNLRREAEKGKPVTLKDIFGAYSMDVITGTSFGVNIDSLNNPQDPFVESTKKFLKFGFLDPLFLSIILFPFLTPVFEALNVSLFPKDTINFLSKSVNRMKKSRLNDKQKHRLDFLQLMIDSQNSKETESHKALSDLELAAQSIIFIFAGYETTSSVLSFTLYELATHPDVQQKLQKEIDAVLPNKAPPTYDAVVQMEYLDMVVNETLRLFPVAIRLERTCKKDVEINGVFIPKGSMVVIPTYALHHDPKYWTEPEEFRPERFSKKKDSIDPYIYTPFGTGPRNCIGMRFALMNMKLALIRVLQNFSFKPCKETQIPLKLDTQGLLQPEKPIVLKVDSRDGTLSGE
T2 sequence (P24462 whole entry): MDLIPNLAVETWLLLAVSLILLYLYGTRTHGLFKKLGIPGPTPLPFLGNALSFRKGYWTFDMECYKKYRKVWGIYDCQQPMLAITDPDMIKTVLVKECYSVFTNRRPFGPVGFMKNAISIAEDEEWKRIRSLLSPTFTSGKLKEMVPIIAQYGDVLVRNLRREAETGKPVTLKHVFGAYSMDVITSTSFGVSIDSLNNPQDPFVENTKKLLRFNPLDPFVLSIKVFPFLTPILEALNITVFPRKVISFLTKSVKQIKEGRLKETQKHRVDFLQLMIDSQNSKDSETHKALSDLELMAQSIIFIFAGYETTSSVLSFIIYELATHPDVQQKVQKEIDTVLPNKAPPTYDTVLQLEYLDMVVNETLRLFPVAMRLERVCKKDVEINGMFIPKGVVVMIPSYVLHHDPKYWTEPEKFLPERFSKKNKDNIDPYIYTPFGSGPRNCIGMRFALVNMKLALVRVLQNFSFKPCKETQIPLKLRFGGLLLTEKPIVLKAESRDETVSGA
Chain of CYP1A2 (P05177 whole entry): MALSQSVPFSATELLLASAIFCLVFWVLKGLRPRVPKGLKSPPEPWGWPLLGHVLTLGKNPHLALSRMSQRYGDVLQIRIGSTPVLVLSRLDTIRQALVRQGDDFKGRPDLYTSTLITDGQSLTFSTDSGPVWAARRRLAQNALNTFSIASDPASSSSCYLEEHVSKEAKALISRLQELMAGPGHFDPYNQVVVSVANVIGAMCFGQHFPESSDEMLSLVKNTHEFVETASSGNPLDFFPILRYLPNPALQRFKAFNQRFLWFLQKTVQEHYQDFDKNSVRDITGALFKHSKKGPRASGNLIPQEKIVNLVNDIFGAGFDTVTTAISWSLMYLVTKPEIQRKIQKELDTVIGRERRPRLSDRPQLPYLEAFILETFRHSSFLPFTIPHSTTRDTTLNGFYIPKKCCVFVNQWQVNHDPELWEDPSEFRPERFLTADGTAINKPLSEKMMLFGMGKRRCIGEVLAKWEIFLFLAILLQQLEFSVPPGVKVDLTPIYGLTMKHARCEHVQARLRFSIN
Chain of Cytochrome P450 2C19 (P33261 whole entry): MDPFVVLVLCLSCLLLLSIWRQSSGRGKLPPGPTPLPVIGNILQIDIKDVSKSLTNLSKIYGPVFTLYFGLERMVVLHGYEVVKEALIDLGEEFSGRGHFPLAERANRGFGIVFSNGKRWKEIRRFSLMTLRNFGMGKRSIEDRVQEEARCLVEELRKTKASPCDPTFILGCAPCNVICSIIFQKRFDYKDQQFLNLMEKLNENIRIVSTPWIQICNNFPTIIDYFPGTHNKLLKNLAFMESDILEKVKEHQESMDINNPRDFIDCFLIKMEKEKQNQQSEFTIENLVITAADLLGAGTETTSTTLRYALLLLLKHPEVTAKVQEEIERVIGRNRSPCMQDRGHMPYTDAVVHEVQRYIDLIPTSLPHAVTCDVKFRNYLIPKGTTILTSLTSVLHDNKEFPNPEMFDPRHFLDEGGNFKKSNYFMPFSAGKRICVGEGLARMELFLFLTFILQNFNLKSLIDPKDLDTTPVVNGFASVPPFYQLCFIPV

Regarding `CC(C)(C)NC(=O)c1ccc(Oc2cc(F)c(CC(=O)O)cc2Cl)c(NS(=O)(=O)c2ccc(C3(O)CC3)cc2Cl)c1`, the Drug metabolism result on Cytochrome P450 3A4 [1], on Cytochrome P450 3A7 [2], at Cytochrome P450 2C8 [4], at Cytochrome P450 2C19, on Cytochrome P450 2J2 [9] and on Cytochrome P450 3A5 [10] was “metabolite_detected” in each case. Besides, the Vmax worked out at 1.13 nmol/min on Cytochrome P450 3A5 [3]; 0.25 nmol/min on Cytochrome P450 2C8 [5]; 0.296 nmol/min/mg in data set [6]; 0.286 nmol/min on Cytochrome P450 3A7 [7]; 1.41 nmol/min at Cytochrome P450 3A4 [8]; 0.299 nmol/min at Cytochrome P450 2J2 [11]. The Vmax in [12] came to 0.317 nmol/min/mg. Besides, the Km in data set [6] was 35.2 µM; in data set [12], 38.5 µM.

For `COc1ccc2[nH]c([S+]([O-])Cc3ncc(C)c(OC)c3C)nc2c1` (stereo not drawn) [OMEPRAZOLE], at CYP1A2, the fold induction at 48 h, up to 30 µM is 47.4.

Regarding `CC(C)(CO)NC(=O)c1ccc(Oc2cc(F)c(CC(=O)O)cc2Cl)c(NS(=O)(=O)c2ccc(C3CC3)cc2Cl)c1`, the Drug metabolism entry on Cytochrome P450 3A4 [1], on Cytochrome P450 3A7 [2], at Cytochrome P450 2C8 [4], on Cytochrome P450 2J2 [9] and on Cytochrome P450 3A5 [10] was “metabolite_detected” throughout. The Vmax at Cytochrome P450 3A5 [3] came out at 0.221 nmol/min; on Cytochrome P450 2C8 [5], 0.031 nmol/min; in data set [6], 0.023 nmol/min/mg; at Cytochrome P450 3A7 [7] it was 0.26 nmol/min; on Cytochrome P450 3A4 [8], 0.96 nmol/min; on Cytochrome P450 2J2 [11], 0.584 nmol/min. Besides, in data set [12], the Vmax was 0.044 nmol/min/mg. Besides, the Ki on Cytochrome P450 2J2 [13] amounted to 240 µM; on Cytochrome P450 2C8 [14], 31.7 µM. For the same molecule, the Km in data set [6] is 4.11 µM; in data set [12], 2.75 µM.

With `CCC1(c2ccccc2)C(=O)NC(=O)NC1=O` [PHENOBARBITAL], at CYP2B6, the fold induction at 48 h, up to 30 µM was determined as 22.1.

Usually Vmax stands for the rate approached at saturating substrate. The term Km denotes the substrate concentration at which the rate is half of its maximum. As usually defined, the Ki is the equilibrium dissociation constant of an inhibitor or competing ligand from its target.

Values taken from ChEMBL document CHEMBL3526017, “Predicting the drug interaction potential of AMG 853, a dual antagonist of the D-prostanoid and chemoattractant receptor-homologous molecule expressed on T helper 2 cells receptors” (Drug Metab Dispos, 2012).
